Molecules are shown by their SMILES.

Assay type in all cases: in vivo
For experiment [1], the system named is Ceratitis capitata flies. The experiment is described as follows: Photoinsecticidal action: fly survival after bait and sunlight irradiation. Particulars: 8 μM in bait, 12 h after feeding, survival 1 h after irradiation. On the procedure: (§1) Porphyrins: • a) meso[tri(N-methyl-pyridyl), mono(N-dodecyl-pyridyl)]porphine (abbr.: C12) • b) meso[tri(N-methyl-pyridyl), mono(N-tetradecyl-pyridyl)]porphine (abbr.: C14) • c) meso[tri(N-methyl-pyridyl), mono(N-octadecyl-pyridyl)]porphine (abbr.: C18) Bait: Aqueous solution containing 10% sucrose and 1% autolysed yeast Flies: • a) Ceratitis capitata (fruit fly) age: 1 week; weight: 5-6 mg • b) Bactrocera oleae (olive fly) age: 10 days; weight: 4-4.5 mg • c) Stomoxis calcitrans (stable fly) age: 10 days; weight: 12 mg Irradiation: • a) High pressure halogen lamp, equipped with infrared and UV filters, emission 360-850 nm, operated at intensities in the 760-2,000 μE s^−1m^−2 range • b) Sunlight, mid June at Padua latitude, average intensity of […] μE s^−1m^−2 with minimum and maximum values of 950 and, respectively, 1,380 μE s^−1m^−2
The survival was evaluated 1 h after the end of irradiation.
An appropriate number of flies (50 flies per each experiment) was caged in 115×55×70 mm Plexiglas cages with several holes (ø=0.5 mm) and starved for 36 h. Then, depending on the protocol to be adopted for each specific experiment, the flies were fed with the bait (10% sucrose and 1% autolysed yeast in neutral aqueous solution), which was either porphyrin-free or added with a predetermined concentration of the porphyrin. These flies were then used in the various experimental sessions.

Experiment [2] relates to Ceratitis capitata flies. The experiment is described as follows: Photoinsecticidal action: fly survival after bait and visible light irradiation (artificial lamp). Particulars: 8 μM in bait, survival 10 h after irradiation. On the procedure: as §1
The irradiations were performed for 1 h, then the flies were kept in dim light for monitoring the survival. Control flies were irradiated under identical conditions after feeding with a porphyrin-free bait.
The irradiations were performed for 1 h at a fluence-rate of 1220 μE s^−1m^−2. The survival was evaluated 10 h after the end of irradiation. […] The porphyrins are abbreviated as following: HP: haematoporphyrin; C1: meso-tetra(N-methyl-pyridyl)porphine.
The survival was evaluated 10 h after the end of irradiation.
An appropriate number of flies (50 flies per each experiment) was caged in 115×55×70 mm Plexiglas cages with several holes (ø=0.5 mm) and starved for 36 h. Then, depending on the protocol to be adopted for each specific experiment, the flies were fed with the bait (10% sucrose and 1% autolysed yeast in neutral aqueous solution), which was either porphyrin-free or added with a predetermined concentration of the porphyrin. These flies were then used in the various experimental sessions. […]

Experiment [3] relates to Ceratitis capitata flies. The experiment is described as follows: Insecticidal action in the dark: fly survival after porphyrin bait. Particulars: for mortality of the flies in the dark: C. capitata, even at the largest porphyrin dose (8.1 μM); for Survival (% of control untreated flies): dark, fed 24 h, survival 12 h after change to porphyrin-free bait. On the procedure:
For comparison, data obtained with two conventional porphyrins (as those described in WO 97/29637) offered to the insects for 24 h at a 3.0 and 8.1 μmolar concentration in the same bait are also shown. In all cases, the survival was determined 12 hours after changing food supply from a porphyrin-containing to a porphyrin-free bait. […] These flies were then used in the various experimental sessions. […] The number of survivors was evaluated 12 h after switching from administration of a porphyrin-containing bait to a porphyrin-free bait. In none of the experiments was mortality or any apparent toxic effect observed in control flies (flies not fed with porphyrin, see survival at 0 μM porphyrin concentration).

Where [4] appears, read: fluence-rate 760 μE s^−1m^−2, irradiated 24 h after feeding (title).
Where [5] appears, read: fluence-rate 1220 μE s^−1m^−2, irradiated 24 h after feeding (title).
Setting [6] is: fluence-rate 1500 μE s^−1m^−2, irradiated 24 h after feeding (title).
Setting [7] is: fluence-rate 2000 μE s^−1m^−2, irradiated 24 h after feeding (title).
[8] abbreviates: time interval feeding-irradiation 0 h, irradiation 1 h at 1220 μE s^−1m^−2.
[9] abbreviates: time interval feeding-irradiation 12 h, irradiation 1 h at 1220 μE s^−1m^−2.
Where [10] appears, read: time interval feeding-irradiation 24 h, irradiation 1 h at 1220 μE s^−1m^−2.
Setting [11] is: time interval feeding-irradiation 48 h, irradiation 1 h at 1220 μE s^−1m^−2.

In the case of `C[n+]1ccc(-c2c3nc(c(-c4cc[n+](C)cc4)c4ccc([nH]4)c(-c4cc[n+](C)cc4)c4nc(c(-c5cc[n+](C)cc5)c5ccc2[nH]5)C=C4)C=C3)cc1` [C1, Meso-tetra (N-methyl-pyridyl) porphine, reference compound], the “Survival (% of control untreated flies)” value is listed as 100 % of control untreated flies in experiment [1] (sunlight 15 min); 100 % of control untreated flies in experiment [1] (sunlight 30 min); 93 % of control untreated flies in experiment [1] (sunlight 45 min); 97 % of control untreated flies in experiment [1] (sunlight 60 min); 100 % of control untreated flies in experiment [2] (setting [4]); 90 % of control untreated flies in experiment [2] (setting [5]). Further, the “Survival (% of control untreated flies)” value in experiment [2] (setting [6]) is recorded as 81 % of control untreated flies; in experiment [2] (setting [7]) it was 73 % of control untreated flies; in experiment [2] (setting [8]), 90 % of control untreated flies; in experiment [2] (setting [9]), 94 % of control untreated flies; in experiment [2] (setting [10]) it was 100 % of control untreated flies; in experiment [2] (setting [11]) it was 97 % of control untreated flies. Also, the “Survival (% of control untreated flies)” value in experiment [3] (3.00 μM in bait) and in experiment [3] (8.10 μM in bait) was 100 % of control untreated flies in each case. Further, in experiment [3], the “mortality of the flies in the dark” value is given as “no mortality of the flies was observed”.
Regarding `CC1=C(CCC(=O)O)c2cc3[nH]c(cc4nc(cc5[nH]c(cc1n2)c(C)c5C(C)O)C(C)=C4C(C)O)c(C)c3CCC(=O)O` (stereo not drawn) [Hp, Haematoporphyrin, reference compound], the “Survival (% of control untreated flies)” value was 75 % of control untreated flies in experiment [1] (sunlight 15 min); 70 % of control untreated flies in experiment [1] (sunlight 30 min); 64 % of control untreated flies in experiment [1] (sunlight 45 min); 40 % of control untreated flies in experiment [1] (sunlight 60 min); 81 % of control untreated flies in experiment [2] (setting [4]); 20 % of control untreated flies in experiment [2] (setting [5]). The “Survival (% of control untreated flies)” value in experiment [2] (setting [6]) is listed as 11 % of control untreated flies; in experiment [2] (setting [7]), 8 % of control untreated flies; in experiment [2] (setting [8]) it was 20 % of control untreated flies; in experiment [2] (setting [9]), 37 % of control untreated flies; in experiment [2] (setting [10]), 58 % of control untreated flies; in experiment [2] (setting [11]) it was 61 % of control untreated flies. Further, the “Survival (% of control untreated flies)” value in experiment [3] (3.00 μM in bait) and in experiment [3] (8.10 μM in bait) was 100 % of control untreated flies in each case. In experiment [3], the “mortality of the flies in the dark” value is on record as “no mortality of the flies was observed”.

The record behind these values is US7384927B2, “Alkylated porphyrins as pesticides acting both in the presence and absence of light” (priority 2003, dated 2008).
